{"source": "patent US12070505B2", "about": "“Targeted peptide-drug conjugates” (priority 2021, dated 2024)", "key": {"[1]": {"assay": "Cytotoxicity, MTS assay, normal kidney cells", "details": "pig, LLC-PK1 kidney cells", "protocol": "(§1) In Vitro Cytotoxicity Assay of Peptide-Drug Conjugates. The cytotoxicity of the compounds was determined by using human leukemia cell line (CCRF-CEM), human ovarian adenocarcinoma cells (SKOV-3) cells, kidney cell line (LLC-PK1), gastric adenocarcinoma cells (AGS), and heart/myocardium cells (H9C2) to evaluate the toxicity of the generated peptides according to a previously reported procedure (Rahman, A.; et al. Proc. Am. Assoc. Cancer Res. 26:2295-2299, 1985, which is incorporated herein by reference). In brief, CCRF-CEM cells were seeded at 50,000 cells in 0.1 mL per well in 98-well plates. In the case of other cell lines, the cells were seeded at 5,000 cells (0.1 mL per well in 96-well plates). The cells were seeded in medium (RPMI-1640 containing FBS (10%)), 24 h prior to the experiment. The compounds at different concentrations (10-50 μM) were added to each well in triplicate and incubated for 24 and 72 h at 37° C. in a humidified atmosphere of 5% CO2. Dox (5 μM) was used as a positive control, while water and cell culture medium were used as negative controls. The compounds were dissolved in water; water was used as a negative control to normalize the data. After the incubation period, MTS reagent (20 μL) was added to each well. The incubation was continued for 2 h. Cell viability was then determined by determination of the fluorescence intensity at 490 nm using a SpectraMax M2 microplate spectrophotometer."}, "LLC-PK1 kidney cells": {"test_system": "LLC-PK1 kidney cells", "assay": "Cytotoxicity, MTS assay, normal kidney cells", "details": "for Cell Viability (%) after 24 h / Cell Viability (%) after 72 h: normal kidney LLC-PK1", "protocol": "as §1"}, "[2]": {"assay": "Cytotoxicity, MTS assay, normal heart muscle cells (Example 1)", "details": "rat, H9C2 heart/myocardium cells", "protocol": "as §1"}, "H9C2 cells": {"test_system": "H9C2 cells", "assay": "Cytotoxicity, MTS assay, normal heart muscle cells (Example 1)", "protocol": "as §1"}, "CCRF-CEM cells [3]": {"test_system": "CCRF-CEM cells", "details": "3 h incubation; cited from earlier work"}, "CCRF-CEM cells [4]": {"test_system": "CCRF-CEM cells", "assay": "Cytotoxicity, MTS cell viability assay, CCRF-CEM", "protocol": "(§2) In Vitro Cytotoxicity Assay of Peptide-Drug Conjugates. […] In brief, CCRF-CEM cells were seeded at 50,000 cells in 0.1 mL per well in 98-well plates. In the case of other cell lines, the cells were seeded at 5,000 cells (0.1 mL per well in 96-well plates). […] Dox (5 μM) was used as a positive control, while water and cell culture medium were used as negative controls. The compounds were dissolved in water; water was used as a negative control to normalize the data. After the incubation period, MTS reagent (20 μL) was added to each well. The incubation was continued for 2 h. Cell viability was then determined by determination of the fluorescence intensity at 490 nm using a SpectraMax M2 microplate spectrophotometer. The percentage of cell viability was then calculated using the following equation: [(OD value of cells treated with the compound)−(OD value of culture medium)]/[(OD value of control cells)−(OD value of culture medium)]×100% (FIGS. 6-9)."}, "[5]": {"test_system": "gastric adenocarcinoma cells (AGS)", "assay": "Cytotoxicity, MTS cell viability assay, AGS", "details": "for reduction of cell survival: 72 h", "protocol": "as §2"}, "[6]": {"test_system": "uterine sarcoma cells (MES-SA/MX2)", "protocol": "as §2"}, "SK-OV-3 cells": {"test_system": "SK-OV-3 cells", "assay": "Cytotoxicity, MTS cell viability assay, SK-OV-3 (Example 1)", "protocol": "as §2"}}, "note": "Like-named read-outs stand apart in the source and are kept apart here.", "data": [{"molecule": "N=C(N)NCCC[C@@H]1NC(=O)[C@H](CCCCNC(=O)[C@H](Cc2c[nH]c3ccccc23)NC(=O)[C@H](Cc2c[nH]c3ccccc23)NC(=O)[C@H](Cc2c[nH]c3ccccc23)NC(=O)[C@H](Cc2c[nH]c3ccccc23)NC(=O)[C@H](Cc2c[nH]c3ccccc23)NC(=O)[C@H](Cc2c[nH]c3ccccc23)NC(=O)[C@H](Cc2c[nH]c3ccccc23)NC(=O)CCN)NC(=O)[C@H](CCCNC(=N)N)NC(=O)[C@H](CCCNC(=N)N)NC(=O)[C@H](CCCNC(=N)N)NC(=O)[C@H](CCCNC(=N)N)NC1=O", "note": "[[R5K]W7A]", "values": [{"measurement": "viability at 24 h, 5 µM", "setting": "[1]", "result": "94 ± 1", "unit": "%"}, {"measurement": "viability at 24 h, 10 µM", "setting": "[1]", "result": "86 ± 1", "unit": "%"}, {"measurement": "viability at 24 h, 25 µM", "setting": "[1]", "result": "82 ± 1", "unit": "%"}, {"measurement": "viability at 24 h, 50 µM", "setting": "[1]", "result": "71 ± 1", "unit": "%"}, {"measurement": "viability at 72 h, 5 µM", "setting": "[1]", "result": "98 ± 3", "unit": "%"}, {"measurement": "viability at 72 h, 10 µM", "setting": "[1]", "result": "100 ± 1", "unit": "%"}, {"measurement": "viability at 72 h, 25 µM", "setting": "[1]", "result": "97 ± 1", "unit": "%"}, {"measurement": "viability at 72 h, 50 µM", "setting": "[1]", "result": "97 ± 3", "unit": "%"}, {"measurement": "cytotoxicity", "setting": "LLC-PK1 kidney cells; LLC-PK1, 5-50 μM, 72 h", "result": "did not generate any significant cytotoxicity"}, {"measurement": "Cell Viability (%) after 24 h", "setting": "LLC-PK1 kidney cells; 5 μM", "result": "94 ± 1", "unit": "%"}, {"measurement": "Cell Viability (%) after 72 h", "setting": "LLC-PK1 kidney cells; 5 μM", "result": "98 ± 3", "unit": "%"}, {"measurement": "Cell Viability (%) after 24 h", "setting": "LLC-PK1 kidney cells; 10 μM", "result": "86 ± 1", "unit": "%"}, {"measurement": "Cell Viability (%) after 72 h", "setting": "LLC-PK1 kidney cells; 10 μM", "result": "100 ± 1", "unit": "%"}, {"measurement": "viability at 72 h, 10 µM", "setting": "[2]", "result": "105 ± 3", "unit": "%"}, {"measurement": "Cell Viability (%) after 24 h", "setting": "H9C2 cells; normal heart H9C2, 10 μM", "result": "101 ± 0", "unit": "%"}, {"measurement": "fold improved uptake of F′-GpYEEI", "setting": "CCRF-CEM cells [3]", "result": "approximately 48 fold"}, {"measurement": "fold improved uptake of emtricitabine (F′-FTC)", "setting": "CCRF-CEM cells [3]", "result": "~27", "unit": "fold"}, {"measurement": "fold improved uptake of stavudine (F′-d4T)", "setting": "CCRF-CEM cells [3]", "result": "~36", "unit": "fold"}, {"measurement": "Cell Viability (%) after 24 h", "setting": "CCRF-CEM cells [4]; 5 μM", "result": "90 ± 1", "unit": "%"}, {"measurement": "Cell Viability (%) after 72 h", "setting": "CCRF-CEM cells [4]; 5 μM", "result": "68 ± 4", "unit": "%"}, {"measurement": "Cell Viability (%) after 24 h", "setting": "CCRF-CEM cells [4]; 10 μM", "result": "68 ± 4", "unit": "%"}, {"measurement": "Cell Viability (%) after 72 h", "setting": "CCRF-CEM cells [4]; 10 μM", "result": "73 ± 6", "unit": "%"}, {"measurement": "Cell Viability (%) after 24 h", "setting": "CCRF-CEM cells [4]; 25 μM", "result": "32 ± 0", "unit": "%"}, {"measurement": "Cell Viability (%) after 72 h", "setting": "CCRF-CEM cells [4]; 25 μM", "result": "24 ± 9", "unit": "%"}, {"measurement": "reduction of cell viability", "setting": "CCRF-CEM cells [4]; 25 μM, 24 h", "result": 68, "unit": "%"}, {"measurement": "cytotoxicity of peptide alone", "setting": "CCRF-CEM cells [4]; concentrations other than 25 μM, even after 72 h", "result": "10-22%"}, {"measurement": "Cell Viability (%) after 24 h", "setting": "[5]; 5 μM", "result": "103 ± 3", "unit": "%"}, {"measurement": "Cell Viability (%) after 72 h", "setting": "[5]; 5 μM", "result": "108 ± 1", "unit": "%"}, {"measurement": "Cell Viability (%) after 24 h", "setting": "[5]; 10 μM", "result": "104 ± 1", "unit": "%"}, {"measurement": "Cell Viability (%) after 72 h", "setting": "[5]; 10 μM", "result": "94 ± 2", "unit": "%"}, {"measurement": "Cell Viability (%) after 24 h", "setting": "[5]; 25 μM", "result": "105 ± 2", "unit": "%"}, {"measurement": "Cell Viability (%) after 72 h", "setting": "[5]; 25 μM", "result": "76 ± 1", "unit": "%"}, {"measurement": "reduction of cell survival", "setting": "[5]; 25 μM", "result": 24, "unit": "%"}, {"measurement": "Cell Viability (%) after 24 h", "setting": "[5]; 50 μM", "result": "79 ± 1", "unit": "%"}, {"measurement": "Cell Viability (%) after 72 h", "setting": "[5]; 50 μM", "result": "21 ± 1", "unit": "%"}, {"measurement": "reduction of cell survival", "setting": "[5]; 50 μM", "result": 87, "unit": "%"}, {"measurement": "cytotoxicity", "setting": "[5]; 5 and 10 μM, 24 and 72 h", "result": "did not generate any significant cytotoxicity"}, {"measurement": "Cell Viability (%) after 72 h", "setting": "[6]; 10 μM", "result": "110 ± 4", "unit": "%"}, {"measurement": "Cell Viability (%) after 72 h", "setting": "[6]; 25 μM", "result": "19 ± 2", "unit": "%"}, {"measurement": "reduction of cell viability", "setting": "[6]; 25 μM, 72 h", "result": "~80", "unit": "%"}, {"measurement": "Cell Viability (%) after 24 h", "setting": "SK-OV-3 cells; 5 μM", "result": "79 ± 1", "unit": "%"}, {"measurement": "Cell Viability (%) after 72 h", "setting": "SK-OV-3 cells; 5 μM", "result": "102 ± 8", "unit": "%"}, {"measurement": "Cell Viability (%) after 24 h", "setting": "SK-OV-3 cells; 10 μM", "result": "76 ± 0", "unit": "%"}, {"measurement": "Cell Viability (%) after 72 h", "setting": "SK-OV-3 cells; 10 μM", "result": "101 ± 1", "unit": "%"}, {"measurement": "Cell Viability (%) after 24 h", "setting": "SK-OV-3 cells; 25 μM", "result": "70 ± 6", "unit": "%"}, {"measurement": "Cell Viability (%) after 72 h", "setting": "SK-OV-3 cells; 25 μM", "result": "81 ± 3", "unit": "%"}, {"measurement": "reduction of cell viability / cytotoxicity", "setting": "SK-OV-3 cells; 25 μM, 72 h", "result": 19, "unit": "%"}, {"measurement": "cytotoxicity of peptide alone", "setting": "SK-OV-3 cells; 5, 10, and 25 μM, 24 h", "result": "21-30%"}]}, {"molecule": "COc1cccc2c1C(=O)c1c(O)c3c(c(O)c1C2=O)C[C@@](O)(C(=O)CO)C[C@@H]3O[C@H]1C[C@H](NC(=N)CCCSSC[C@H](NC(C)=O)C(=O)N[C@@H](Cc2c[nH]c3ccccc23)C(=O)N[C@@H](Cc2c[nH]c3ccccc23)C(=O)N[C@@H](Cc2c[nH]c3ccccc23)C(=O)N[C@@H](Cc2c[nH]c3ccccc23)C(=O)N[C@@H](Cc2c[nH]c3ccccc23)C(=O)N[C@@H](Cc2c[nH]c3ccccc23)C(=O)N[C@@H](Cc2c[nH]c3ccccc23)C(=O)NCCCC[C@@H]2NC(=O)[C@H](CCCNC(=N)N)NC(=O)[C@H](CCCNC(=N)N)NC(=O)[C@H](CCCNC(=N)N)NC(=O)[C@H](CCCNC(=N)N)NC(=O)[C@H](CCCNC(=N)N)NC2=O)[C@H](O)[C@H](C)O1", "note": "[[R5K]W7C-S-S-Dox]", "values": [{"measurement": "viability at 24 h, 5 µM", "setting": "[2]", "result": "98 ± 1", "unit": "%"}, {"measurement": "viability at 24 h, 10 µM", "setting": "[2]", "result": "91 ± 1", "unit": "%"}, {"measurement": "viability at 24 h, 25 µM", "setting": "[2]", "result": "92 ± 1", "unit": "%"}, {"measurement": "viability at 72 h, 5 µM", "setting": "[2]", "result": "106 ± 1", "unit": "%"}, {"measurement": "viability at 72 h, 10 µM", "setting": "[2]", "result": "117 ± 1", "unit": "%"}, {"measurement": "viability at 72 h, 25 µM", "setting": "[2]", "result": "105 ± 2", "unit": "%"}, {"measurement": "viability at 96 h, 5 µM", "setting": "[2]", "result": "104 ± 1", "unit": "%"}, {"measurement": "viability at 96 h, 10 µM", "setting": "[2]", "result": "113 ± 3", "unit": "%"}, {"measurement": "viability at 96 h, 25 µM", "setting": "[2]", "result": "108 ± 1", "unit": "%"}, {"measurement": "cytotoxicity", "setting": "H9C2 cells; H9C2, 5-10 and 25 μM, any incubation time", "result": "did not show any cytotoxicity"}]}]}
